From US20080287396A1, “Phosphonated Fluoroquinolones, Antibacterial Analogs Thereof, and Methods for the Prevention and Treatment of Bone and Joint Infections” (TARGANTA THERAPEUTICA INC., priority 2005, published 2008) come the findings set out here.

Converted amounts (≈) assume the structure as drawn. “Also recorded” adds a separate entry of the source.

Data set [1] relates to S. aureus strains ATCC13709 and RN4220. As to the kind of experiment: microbe, parasite or virus in culture. The data set is classed as cell-based. The following applies: Staphylococcus aureus, ATCC13709; CAMHB, 37° C., 18 h; data not shown; read-out: minimum inhibitory concentration (MIC). As for the experimental part: Susceptibility of S. aureus strains ATCC13709 and RN4220 to the commercial antibiotics and synthesized compounds was determined by following the guidelines set by the Clinical and Laboratory Standards Institute (formerly the National Committee for Clinical Laboratory Standards) (M26-A). Compounds were diluted two-fold serially in DMSO and transferred to cation-adjusted Mueller Hinton broth (CAMHB; Becton Dickinson). 50 μL of compounds diluted in CAMHB was mixed with 100 μL of bacteria diluted in CAMHB in 96-well microtiter plates. The final number of micro-organisms in the assay was 5×10^5 c.f.u. per mL and the final concentration of DMSO in the assay was 1.25%. Assays were set up in duplicate and incubated at 37° C. for 18 h. The concentration of compound that inhibited visible growth was reported as the minimum inhibitory concentration (MIC).

Data set [2] is described as follows: Bone powder binding, fluorometric detection. The following applies: 1 mg/ml compound, bone meal powder 10 mg/ml in PBS, 37° C., 1 h. How it is done: The ability of the example molecules to bind to bone powder was established in two parallel fashions, using either LC/MS or fluorometric detection. For LC/MS detection, a stock solution (5 mM) of the compound to be tested was added to 0.1M Tris-HCl buffer pH 7, 0.15M NaCl to reach a final concentration of 100 μM. Triplicate samples (1 mL) of the compound solutions were intensively shaken for 10 min with or without 25 mg of fresh or 20 mg of vacuum dried ground rat tibia bone. The samples were then centrifuged for 15 min at 10 000 g. The presence of unbound compound was measured by injection of 30 μL of each of the supernatants into an Agilent 1100™ LC/UV system. For fluorometric detection, an individual compound was dissolved in PBS or water (compound 52) and resuspended at a concentration of 1 mg/ml in a slurry of bone meal powder (Now Foods, Bloomingdale, Ill., USA) in PBS at 10 mg/ml. The suspension of drug/prodrug in bone meal powder was incubated at 37° C. for 1 h to allow for binding, and centrifuged at 13 000 rpm for 2 min, before recovering the supernatant. The bone meal powder pellet was then washed three times with 1 ml of PBS. All supernatants were saved and assessed for fluoroquinolone content by fluorescence measurements at excitation/emission wavelengths of 280/465 nm. The amount of fluoroquinolone was determined from standard curves generated for each experiment. Amount of drug/prodrug bound to bone powder was deduced from the difference between the input amount (typically 1 mg) and the amount recovered in the supernatants after binding. In all binding experiments, >99% of input drug was recovered in the supernatant for the parent drugs.

A further data set relates to S. aureus ATCC 13709. Nature of the data set: Prophylactic model of bone infection in rats. It is filed as in vivo, rat. The following applies: for bacterial titer compared with untreated group: 10 mg/kg IV 1 h after infection (positive control); for Measured bacterial titer (Log CFU/g of bone) Test compound: 20 mg/kg IV, 3 days prior to infection; for prophylactic effect in rat model of bone infection, in words: Table 4 and FIGS. 6-8, doses as in Table 4. How it is done:
To determine the activity in vivo of bisphosphonated prodrugs of fluoroquinolones, compounds 52 and 107, derivatives of parent compounds moxifloxacin 3 (for 52), and compounds 39, 44, 49, 54, 121, 129, 141, 145, 149, derivatives of parent compound gatifloxacin 15, were used in a prophylactic model for infection. Specifically, S. aureus ATCC 13709 cells were grown overnight at 37° C. in brain heart infusion broth (BHIB). Cells were subcultured into fresh BHIB and incubated for 4 to 5 h at 37° C. The cells were washed twice with phosphate-buffered saline (PBS) and resuspended in BHIB supplemented with 10% (vol./vol.) fetal bovine serum at a density of approximately 10^10 colony forming units (CFU)/ml (based upon turbidimetry). The suspension was aliquoted and a portion was used to check the CFU count. The culture was stored frozen (−80° C.) and was used without subculture. For use as an inoculum the culture was thawed, diluted in PBS and kept in an ice bath until it was used.
Animals were infected as described by O'Reilly et al. (Antimicrobial Agents and Chemotherapy (1992), 36(12): 2693-97) to generate the bone infection. Female CD rats (age, 57 to 70 days; n=5/group; Charles River, St-Constant, Canada) were anaesthetized by isofluorane before and during the surgery. Following complete induction of anesthesia, the rat was placed ventral side up and hair was shaved from the surgical site. The skin over the leg was cleaned and disinfected (proviodine-ethanol 70%). A longitudinal incision below the knee joint was made in the sagital plane. The incision was made over the bone below the “knee joint” (tibia head or condyle) but not completely extending to the ankle. A high speed drill fitted with a 2 mm bulb bit was used to drill a hole into the medullar cavity of the tibia. Rats were injected intra-tibially with 0.05 ml 5% sodium morrhuate (sclerosing agent) and then with 0.05 ml of S. aureus suspension (ca. 5×10^5 CFU/rat). The hole was sealed by applying a small amount of dry dental cement which immediately absorbs fluids and adheres to the site. The wound was closed using 3 metal skin clips. Moxifloxacin 3 (as a positive control) was injected once at 10 mg/kg intravenously 1 h postinfection in saline, while the fluoroquinolone prodrugs (prepared in 0.9% saline) were injected as a single intravenous bolus dose at different time points prior to the infection. For comparison, the parent drug (moxifloxacin 3 or gatifloxacin 15) was also injected intravenously once at a molar equivalent dose at the same time point prior the infection.
Infected rats were sacrificed by CO2 asphyxiation 24 h postinfection to monitor the bacterial CFU count. Infected tibiae were removed, dissected free of soft tissue, and weighed. The bones were ground using a metal ball mill, resuspended in 5 ml 0.9% NaCl, serially diluted and processed for quantitative cultures. For compounds 39, 44, 49, 54, 141, 145, 149, 1 ml of the 0.9% NaCl solution was added to 50 mg of charcoal before serial dilutions. Treatment efficacies were measured in terms of Log viable bacteria (Log CFU per gram of bone). The results obtained for each group of rats were evaluated by calculating the mean Log CFU and standard deviation. The limit of detection is 2 Log CFU/g of bone. Statistical comparisons of viable bacterial counts for the different treated and untreated groups were performed with Dunnett's multiple-comparison test. Differences were considered significant when the P value was <0.05 when comparing treated infected animals to the untreated infected ones.

The test system of a further data set is Hela cells. As to the kind of experiment: Cytotoxicity assay (MTS reduction). The data set is classed as cell-based. The following applies: concentrations up to 100 μM, 18 h, MTS reagent; data not shown. As for the experimental part: Selected compounds were also tested for their ability to inhibit growth of mammalian cells so as to ascertain levels of cytotoxicity to the mammalian host, via an assay measuring the biological reduction of the inner salt of (3-(4,5-dimethylthiazol-2-yl)-5-(3-carboxymethoxyphenyl)-2-(4-sulfophenyl)-2H-tetrazolium (MTS reagent). Assays were performed in 96-well microtiter plates. Briefly, compounds at 100, 50, 25, and 12.5 μM concentrations were incubated with 2×10^4 Hela cells per well in Dulbecco's Modified Eagle Medium (Invitrogen Corporation) containing 1% Bovine Growth Serum (HyClone) for 18 h at 37° C. under 5% CO2.

The nature of data set [3]: Regeneration of drug from bone powder-bound prodrug. Conditions: for drug released from the bone matter after 24 h, in words / drug released from the bone matter after 7 days of incubation, in words: medium not stated; for effect of the medium (presence or absence of serum) on regeneration rate: PBS vs serum. The data set is classed as in vitro ADME. How it is done:
Amounts of drug “regenerated” from the phosphonated parent prodrug were measured as follows. Washed bone powder-bound prodrugs from the above section were resuspended in 400 μL PBS or in 400 μL 50% (v/v in PBS) human or rat serum. […] Methanol (5× volume relative to supernatant) was added to each supernatant and the mixture was vortexed on a floor model vortex for 15 min to extract freed fluoroquinolone. The mixture was then centrifuged at 10 000 rpm for 15 min to pellet the insoluble material. The supernatant containing the extracted fluoroquinolone was recovered and evaporated to dryness in a speed vac. The dried pellets were resuspended in PBS and the amount of fluoroquinolone was determined by fluorescence measurements as described above. The percentage of drug regenerated was deduced from the difference between amount of bound prodrug and the amount of regenerated drug. The identity of regenerated drug was deduced by MIC determination; MICs of regenerated material matched those of parent drugs but not those of prodrugs.

In the case of `COc1c(N2C[C@@H]3CCCN[C@@H]3C2)c(F)cc2c(=O)c(C(=O)O)cn(C3CC3)c12` [Compound 3, Moxifloxacin, reference compound], in data set [1], the MIC was in the range of 0.5 to 1 µg/mL (≈ 1.25 to 2.49 µM). Besides, in data set [2], the “Binding to bone (%) Fluorescence” value worked out at 0%. Besides, the “bacterial titer compared with untreated group” value in the data set on S. aureus ATCC 13709 is recorded as “significant decrease in the bacterial titer”; in the data set on S. aureus ATCC 13709 (listed as moxifloxacin 3), “significant (p<0.05) decrease in bacterial titer; also recorded: significant (p-value ≦0.0002) decrease in bacterial titer”. Also, the “prophylaxis by the parent drug, in words” value with S. aureus ATCC 13709 (used five or two days prior to infection) is “unable to exhibit such efficient prophylaxis”.

For the compound `COc1c(N2C[C@@H]3CCCN(CC(P(=O)(O)O)P(=O)(O)O)[C@@H]3C2)c(F)cc2c(=O)c(C(=O)O)cn(C3CC3)c12` [Compound 5, 7-((4aS,7aS)-1-(2,2-bisphosphonoethyl)-octahydropyrrolo[3,4-b]pyridin-6-yl)-1-cyclopropyl-6-fluoro-1,4-dihydro-8-methoxy-4-oxoquinoline-3-carboxylic acid], the cytotoxicity result in the data set on Hela cells is reported as “no signs of any cytotoxicity”. In addition, the “Binding to bone (%) Fluorescence” value in data set [2] came to 92.2%. Moreover, in data set [3], the “drug released from the bone matter after 24 h, in words” value is recorded as “not measurable amount of drug released” and the “drug released from the bone matter after 7 days of incubation, in words” value was “only trace amounts”.

Turning to `O=C(O)c1cn(C2CC2)c2cc(N3CCN(CC(P(=O)(O)O)P(=O)(O)O)CC3)c(F)cc2c1=O` [Compound 8, 7-(4-(2,2-bisphosphonoethyl)piperazin-1-yl)-1-cyclopropyl-6-fluoro-1,4-dihydro-4-oxoquinoline-3-carboxylic acid], the cytotoxicity result with Hela cells was “no signs of any cytotoxicity”. In addition, the “Binding to bone (%) Fluorescence” value in data set [2] was 99.6%. For the same compound, the “drug released from the bone matter after 24 h, in words” value in data set [3] was “not measurable amount of drug released”.

As to `COc1c(N2C[C@@H]3CCCN[C@@H]3C2)c(F)cc2c(=O)c(C(=O)OCCCC(P(=O)(O)O)P(=O)(O)O)cn(C3CC3)c12` [Compound 14, 4,4-bisphosphonobutyl 7-((4aS,7aS)-octahydropyrrolo[3,4-b]pyridin-6-yl)-1-cyclopropyl-6-fluoro-1,4-dihydro-8-methoxy-4-oxoquinoline-3-carboxylate], the cytotoxicity entry with Hela cells is given as “no signs of any cytotoxicity”. The “Binding to bone (%) Fluorescence” value in data set [2] worked out at 93.8%. The “drug released from the bone matter after 7 days of incubation, in words” value in data set [3] was “signs of drug release”.

Consider `COc1c(N2CCNC(C)C2)c(F)cc2c(=O)c(C(=O)O)cn(C3CC3)c12` (stereo not shown) [Compound 15, Gatifloxacin, reference compound], for which, in data set [1], the MIC lay within 0.5 to 1 µg/mL (≈ 1.33 to 2.66 µM). In addition, in data set [2], the “Binding to bone (%) Fluorescence” value was found to be 0%. The “prophylactic effect on bacterial titer” value with S. aureus ATCC 13709 (10 mg/Kg (equivalent dose) 48 h prior to infection (FIG. 8)) is on record as “without effect”.

On to `COc1c(N2CCN(C(=O)OC(C)OC(=O)CCCC(=O)NC(P(=O)(O)O)P(=O)(O)O)C(C)C2)c(F)cc2c(=O)c(C(=O)O)cn(C3CC3)c12` (stereo not shown) [Compound 39], for which the cytotoxicity result in the data set on Hela cells was “no signs of any cytotoxicity”. The “Binding to bone (%) Fluorescence” value in data set [2] amounted to 94.3%. Besides, the “effect of the medium (presence or absence of serum) on regeneration rate” value (“effect of the medium” below) in data set [3] is “fairly similar rates”. For the same compound, in the data set with S. aureus ATCC 13709, the “Measured bacterial titer (Log CFU/g of bone) Test compound” value is recorded as 4.63 ± 0.39 Log CFU/g of bone and the “prophylactic effect in rat model of bone infection, in words” value is given as “unable to produce a positive result in vivo”.

Turning to `COc1c(N2CCN(C(=O)OC(C)OC(=O)CCCC(P(=O)(O)O)P(=O)(O)O)C(C)C2)c(F)cc2c(=O)c(C(=O)O)cn(C3CC3)c12` (stereo not shown) [Compound 44], the MIC in data set [1] was 1 to 8 µg/mL (≈ 1.41 to 11.3 µM). Further, the “Binding to bone (%) Fluorescence” value in data set [2] is on record as 88.4%. Also, the “effect of the medium” value in data set [3] is “fairly similar rates”. In the data set with S. aureus ATCC 13709, the “Measured bacterial titer (Log CFU/g of bone) Test compound” value is on record as 4.72 ± 0.83 Log CFU/g of bone and the “prophylactic effect in rat model of bone infection, in words” value is recorded as “unable to produce a positive result in vivo”.

On to `COc1c(N2CCNC(C)C2)c(F)cc2c(=O)c(C(=O)OCC(=O)Nc3ccc(CC(P(=O)(O)O)P(=O)(O)O)cc3)cn(C3CC3)c12` (stereo not shown) [Compound 64, (4-(2,2-Bisphosphonoethyl)phenylcarbamoyl)methyl 7-(3-methylpiperazin-1-yl)-1-cyclopropyl-6-fluoro-1,4-dihydro-8-methoxy-4-oxoquinoline-3-carboxylate], for which the cytotoxicity result in the data set on Hela cells was “no signs of any cytotoxicity”. Also, the “Binding to bone (%) Fluorescence” value in data set [2] is reported as 88.9%. Moreover, in data set [3], the “effect of the medium” value is “fairly similar rates”.
